Consider two compounds from patent US11400160B2, “Multifunctional conjugates” (E.P.O.S IASIS Research and Development Limited, priority 2017, dated 2022).

“Also recorded” adds a separate entry of the source. Read-outs that look alike come from different tables or passages of the source.

Experiment [1] relates to primary human osteoblast cultures. Briefly: Osteoblast mineralization (alizarin red, calcium in cell layer). Format: cell-based. The following applies: up to 15 days, osteo-inductive conditions; compared to free BP; alizarin red and calcium; FIG. 6. The procedure:
The effect of free γToc and BP-γToc treatment on osteoblast function, using mineralized bone nodule-forming primary human osteoblast cultures was investigated.
Osteoblasts harvested from human donors at the time of joint replacement surgery were cultured up to 15 days in serum-containing medium under osteo-inductive conditions.

The test system of a further experiment is Balb/c Nu/Nu mice. Briefly: Intratibial injection of compounds, micro-CT trabecular bone volume. The following applies: 10 μl into tibial marrow space, 3 weeks, μCT; compared to the maternal BP compound; preliminary data; FIG. 8. Format: in vivo. The procedure: Four week old female Balb/c Nu/Nu mice were housed under pathogen free conditions, in accordance with the guidelines approved by the Institute of Medical and Veterinary Science animal ethics research committee. Mice were randomly assigned into 3 groups of 4 animals. The left tibia was wiped with 70% ethanol and a 26 gauge needle coupled to a Hamilton syringe, was inserted through the tibial plateau with the knee flexed and 10 μl of each drug injected into the marrow space. Mice were humanely killed 3 weeks post drug administration and bone morphometric parameters were assessed using high resolution micro-CT and histology.
• Group 1: Bpp(OEt) (BP) (20 μM) • Group 2: γ-Tocotrienol (20 μM) • Group 3: γ-Tocotrienol-BP conjugate (20 μM) Micro-Computer Tomography Analysis
Both the right and left tibiae of each animal were mounted in the CT specimen tube and placed securely into the SkyScan-1072 X-ray micro-CT Scanner (Aartselaar, Belgium). The program was commenced with magnification set to give scan slices of 5.2 microns. Three-dimensional (3D) images were generated using Cone-Beam reconstruction and 3D visualisation (Skyscan). Using the two dimensional (2D) images obtained from the micro-CT scan, the growth plate was identified and 750 sections, starting from the growth plate/tibial interface and moving down the tibia, were selected. […]

A further experiment concerns mouse neonatal calvariae. The experiment in a line: Calvarial organotypic bone growth assay (ex vivo). As to conditions: ex vivo culture 10 days, FIG. 7; for bone formation in calvariae: above free BP or untreated. Also on record: species or system mouse (Balb/c). The procedure:
Anexvivo model of cultured mouse neonatal calvariae to assess bone anabolic activity of each compound was performed as previously described by Garrett, I et al., (Methods Mol Med, 2003. 80: p. 183-198).
Briefly fifteen newborn, 4 day old Balb/c pubs were used for these experiments. Calvarial bones were dissected under sterile conditions and placed on sterile grids in 12 well plates containing culture media. Calvarial bones were cultured for 10 days in the presence of free γToc, BP-γToc or free BP. Bone morphogenetic protein 2 (BMP-2) was used as a positive control, with known bone anabolic activity in this assay.
Treatments were carried out in quadruplicate as shown below. Calvarial bones were embedded in paraffin wax and sections were stained with haematoxylin and eosin stain (H&E) and analysed using the nanozoom image analysis software.
• Untreated • Bpp(OEt) (BP) (15 μM) • BP (20 μM) • γ-Tocotrienol (15 μM) • γ-Tocotrienol (20 μM) • γ-Tocotrienol (100 μM) • BP-γ-tocotrienol conjugate (15 μM) • BP-γTocotrienol conjugate (20 μM) • BP-γ-Tocotrienol conjugate (100 μM) • BMP-2 (50 ng/ml)
New bone formation in treated calvariae was assessed by histological assessment of stained sections.

The next experiment relates to MDA-MB231TXSA cells. The experiment in a line: Cell viability, crystal violet colorimetric assay. The following applies: 72 hrs; for IC50: tested at 0.02-0.1 mM, read-out: IC50 values MB231-TXSA. Format: cell-based. The procedure:
(§1) Immortalised osteolytic metastatic breast cancer cell lines, a) hormone-dependent MCF-7 and b) hormone refractory MDA-MB231, together with the daughter line MDA-MB231TXSA were incubated with 5 gradual concentrations of compounds of the invention as described below. Cell viability was assessed with the crystal violet colorimetric assay and IC50s were evaluated.
(§2) Medium was removed from cell cultures and cells were fixed with 4% v/v formaldehyde for 5 mins at room temperature. Formalin was then removed and CV added for 10 mins at room temperature followed by several washes with dsH2O. Samples were allowed to dry overnight. The following day, 10% acetic acid was added for 15 mins and optical density at 620 nm was measured. Optical densities versus compound concentrations were plotted in graphs and IC50s estimated by linear regression analysis using the WorkOut (VictorX4) software.
(§3) MCF-7, MDA-MB231 and MDA-MB231TXSA cells were seeded in 96-well-plates and allowed to attach overnight. The following day media were replaced with fresh media containing the following compounds: Both free tetraethyl methylbisphosphonate (bpp(OEt)) and bpp(OEt) in 1:1 combination with the free chromanol and the biphosphonate conjugates were tested at 5 gradual concentrations of: 0.02, 0.04, 0.06, 0.08 and 0.1 mM.
(§4) Cells were cultured in the presence of the compounds for 72 hrs and viability was assessed on day 3 by crystal violet assay. The cell lines were selected for their high bone metastatic potential. The fluorescently transfected line MB231TXSA, derived from line MB231 is also used in animal studies (WP7).

A further experiment has as its system MDA-MB231 cells. Briefly: Cell viability, crystal violet colorimetric assay. The experiment is classed as cell-based. The following applies: 72 hrs; for IC50: tested at 0.02-0.1 mM. The procedure:
as §1, §2, §3, §4

Experiment [2] relates to mature osteoclasts isolated from human Giant Cell Tumours (GCT) of bone. The experiment in a line: Bone resorption by mature osteoclasts from Giant Cell Tumours of bone. Format: cell-based. As to conditions: osteoclasts from human GCT of bone on whale dentine, 5 days. From the text:
Human peripheral blood mononuclear cells (PBMCs) and the RAW264.7 murine monocytic cell line were differentiated into osteoclast-like cells in the presence of RANKL plus M-CSF and have been used as model systems of osteoclastogenesis. Osteoclast-like cells, from Giant Cell Tumours (GCT) of bone specimens from three independent donors were used to investigate the effect of compounds of the invention on the bone resorbing activity of mature osteoclasts.
To determine the effect of compounds of the invention on bone resorbing activity of mature osteoclast, cultured cells isolated from primary human Giant Cell Tumours of bone specimens were used. These cells were plated on whale dentine slices in 96-well plates at a density of 1×10^5/well and treated for 5 days with increasing concentrations of compounds of the invention. Medium and treatments were replaced on day three and pit formation determined on day 5.
Whale dentine slices will be washed in extran, rinsed with distilled water, washed in 70% ethanol and dried overnight. […] Images will be analysed using ImageQuant software and the area of resorption determined for each dentine slice (quadruplicate dentine slices for each treatment). Results are expected to be average resorption area +/− standard errors of the mean (SEM) and the significant differences between treatments will be determined using Students t-tests (2-tailed, unpaired).

`Cc1c(O)cc2c(c1C)O[C@](C)(CCC[C@H](C)CCC[C@H](C)CCCC(C)C)CC2` [γ-toc, γ-tocopherol, reference compound]: the “matrix-containing mineralized nodules in osteoblast cultures” value in experiment [1] is reported as “progressively increased matrix-containing mineralized nodules”. For the same compound, the “trabecular bone volume at the site of injection” value in the experiment on Balb/c Nu/Nu mice is given as “significant increase in trabecular bone volume”. Further, the “bone formation in calvariae” value with mouse neonatal calvariae is “significantly increased bone formation”. The concentration for half-maximal inhibition (IC50) – broadly, the concentration needed to halve the response being measured – was determined as 97.4 µM with MDA-MB231TXSA cells (Exp.1); 233 µM in the experiment on MDA-MB231TXSA cells (Exp.2, unstarred values); 55.7 µM in the experiment on MDA-MB231 cells (Exp.2). In addition, in the experiment with MDA-MB231 cells (Exp.1, * denotes EC50 value, read-out: EC50 value (starred) MB231), the EC50 (in general, the concentration needed to bring the measured effect to its halfway point) amounted to 312 µM. Also, the “bone resorption by already mature osteoclasts” value in experiment [2] is “inhibited bone resorption”.
With `CCOP(=O)(OCC)C(CCC(=O)Oc1cc2c(c(C)c1C)OC(C)(CCCC(C)CCCC(C)CCCC(C)C)CC2)P(=O)(OCC)OCC` (centres unmarked) [γ-toc-bpp(OEt), γ-tocopheryl bisphosphonic ester], in experiment [1], the “matrix-containing mineralized nodules in osteoblast cultures” value is listed as “progressively increased matrix-containing mineralized nodules”. Besides, in the experiment with Balb/c Nu/Nu mice, the “trabecular bone volume at the site of injection” value is “significant increase in trabecular bone volume”. Also, the “bone formation compared with free γToc and BMP-2 positive control” value with mouse neonatal calvariae (listed as BP-γToc) is reported as “far superior to the free γToc; also recorded: even greater than that seen with the BMP-2 positive control”. In addition, in the experiment with mouse neonatal calvariae, the “bone formation in calvariae” value is “significantly increased bone formation”. In addition, the IC50 in the experiment on MDA-MB231TXSA cells (Exp.1) turned out to be 79.3 µM; in the experiment with MDA-MB231 cells (Exp.1, unstarred values), 124 µM; in the experiment on MDA-MB231 cells (Exp.2) it was 49.7 µM. In the experiment with MDA-MB231TXSA cells (Exp.2, * denotes EC50 value, read-out: EC50 value (starred) MB231-TXSA), the EC50 amounted to 189 µM. The “bone resorption by already mature osteoclasts” value in experiment [2] is given as “inhibited bone resorption”.
